From ChEMBL document CHEMBL5634140, “Discovery of benzyloxy benzamide derivatives as potent neuroprotective agents against ischemic stroke” (Eur J Med Chem, 2023)
In brackets after ≈: the same amount, converted by molar mass. Activity calls are given as the source filed them. The calls are words filed in the database; no cut-off is given here.

How the values were obtained:
[1] = system: SH-SY5Y; assay: Neuroprotective activity against glutamate induced human SH-SY5Y cells at 0.1 uM preincubated for 30 mins followed by glutamate addition and measured after 24 hrs by LDH based assay; type: functional; settings: time 24.5 hrs
[2] = system: SH-SY5Y; assay: Cytotoxicity against human SH-SY5Y cells at 25 uM incubated for 72 hrs by CCK8 assay; type: toxicity, cell-based
[3] = system: SH-SY5Y; assay: Neuroprotective activity against glutamate induced human SH-SY5Y cells at 10 uM preincubated for 30 mins followed by glutamate addition and measured after 24 hrs by LDH based assay; type: functional; settings: time 24.5 hrs
[4] = system: SH-SY5Y; assay: Neuroprotective activity against glutamate induced human SH-SY5Y cells at 1 uM preincubated for 30 mins followed by glutamate addition and measured after 24 hrs by LDH based assay; type: functional; settings: time 24.5 hrs
[5] = Cmax in Sprague-Dawley rat at 10 mg/kg, po measured upto 24 hrs by LC-MS/MS analysis; type: ADME, organism-based; settings: in vivo
[6] = Mean residence time in Sprague-Dawley rat at 5 mg/kg, iv measured upto 24 hrs by LC-MS/MS analysis; type: ADME, organism-based; settings: in vivo
[7] = Half life in Sprague-Dawley rat at 5 mg/kg, iv measured upto 24 hrs by LC-MS/MS analysis; type: ADME, organism-based; settings: in vivo
[8] = AUC(0 to infinity) in Sprague-Dawley rat at 5 mg/kg, iv measured upto 24 hrs by LC-MS/MS analysis; type: ADME, organism-based; settings: in vivo
[9] = AUC(0 to t) in Sprague-Dawley rat at 5 mg/kg, iv measured upto 24 hrs by LC-MS/MS analysis; type: ADME, organism-based; settings: in vivo
[10] = Half life in Sprague-Dawley rat at 10 mg/kg, po measured upto 24 hrs by LC-MS/MS analysis; type: ADME, organism-based; settings: in vivo
[11] = Apparent volume of distribution in Sprague-Dawley rat at 5 mg/kg, iv measured upto 24 hrs by LC-MS/MS analysis; type: ADME, organism-based; settings: in vivo, read-out: Vz
[12] = AUC(0 to t) in Sprague-Dawley rat at 10 mg/kg, po measured upto 24 hrs by LC-MS/MS analysis; type: ADME, organism-based; settings: in vivo
[13] = AUC(0 to infinity) in Sprague-Dawley rat at 10 mg/kg, po measured upto 24 hrs by LC-MS/MS analysis; type: ADME, organism-based; settings: in vivo
[14] = Oral bioavailability in Sprague-Dawley rat at 10 mg/kg measured upto 24 hrs by LC-MS/MS analysis; type: ADME, organism-based; settings: in vivo
[15] = system: Cortical neurone; assay: Neuroprotective activity against glutamate induced Sprague-Dawley rat primary cortical neuron at 0.1 to 10 uM preincubated for 30 mins followed by glutamate/glycine addition for 30 mins and measured after 24 hrs by LDH based assay; type: functional, cell-based; settings: dose 0.1-10 µM, time 25.0 hrs
[16] = Mean residence time in Sprague-Dawley rat at 10 mg/kg, po measured upto 24 hrs by LC-MS/MS analysis; type: ADME, organism-based; settings: in vivo
[17] = Tmax in Sprague-Dawley rat at 10 mg/kg, po measured upto 24 hrs by LC-MS/MS analysis; type: ADME, organism-based; settings: in vivo
[18] = Cmax in Sprague-Dawley rat at 5 mg/kg, iv measured upto 24 hrs by LC-MS/MS analysis; type: ADME, organism-based; settings: in vivo
[19] = system: Rattus norvegicus; assay: Neuroprotective activity against MCAO-reperfusion induced Sprague-Dawley rat assessed as reduction in infarct volume at 6 mg/kg, ip by TTC staining based analysis (reference value: 40.02 +/- 2.61 %); type: functional; set-up: scale not given: the % may be the effect or the level left
[20] = Ratio of drug concentration in Sprague-Dawley rat brain to plasma at 10 mg/kg, iv measured after 0.5 hrs by LC-MS/MS analysis; type: ADME, organism-based
[21] = Mean residence time in Sprague-Dawley rat at 2 mg/kg, iv measured upto 24 hrs by LC-MS/MS analysis; type: ADME, organism-based; settings: in vivo
[22] = Drug concentration in Sprague-Dawley rat plasma at 10 mg/kg, iv after 0.25 hrs by LC-MS/MS analysis; type: ADME, organism-based
[23] = Drug concentration in Sprague-Dawley rat plasma at 10 mg/kg, iv after 0.5 hrs by LC-MS/MS analysis; type: ADME, organism-based
[24] = Drug concentration in Sprague-Dawley rat brain at 10 mg/kg, iv after 1 hr by LC-MS/MS analysis; type: ADME, organism-based; settings: read-out: Ct
[25] = Ratio of drug concentration in Sprague-Dawley rat brain to plasma at 10 mg/kg, iv measured after 1 hr by LC-MS/MS analysis; type: ADME, organism-based
[26] = Apparent clearance in Sprague-Dawley rat at 2 mg/kg, iv measured upto 24 hrs by LC-MS/MS analysis; type: ADME, organism-based; settings: in vivo, read-out: CL(app)
[27] = AUC(0 to infinity) in Sprague-Dawley rat at 2 mg/kg, iv measured upto 24 hrs by LC-MS/MS analysis; type: ADME, organism-based; settings: in vivo
[28] = Apparent volume of distribution in Sprague-Dawley rat at 2 mg/kg, iv measured upto 24 hrs by LC-MS/MS analysis; type: ADME, organism-based; settings: in vivo, read-out: Vz
[29] = Cmax in Sprague-Dawley rat at 2 mg/kg, iv measured upto 24 hrs by LC-MS/MS analysis; type: ADME, organism-based; settings: in vivo
[30] = Drug concentration in Sprague-Dawley rat plasma at 10 mg/kg, iv after 1 hr by LC-MS/MS analysis; type: ADME, organism-based
[31] = Half life in Sprague-Dawley rat at 2 mg/kg, iv measured upto 24 hrs by LC-MS/MS analysis; type: ADME, organism-based; settings: in vivo
[32] = Solubility of the compound at pH 7.4; type: physicochemical; settings: buffer
[33] = system: Neuron; assay: Neuroprotective activity against glutamate-induced excitotoxicity in rat primary neurons at 0.1 uM; type: functional, cell-based
[34] = system: Neuron; assay: Inhibition of PSD95 to nNOS protein-protein interaction in glutamate induced rat neurons at 2 to 20 uM by co-immunoprecipitation method; type: cell-based; settings: dose 2-20 µM
[35] = Drug concentration in Sprague-Dawley rat brain at 10 mg/kg, iv after 0.5 hrs by LC-MS/MS analysis; type: ADME, organism-based; settings: read-out: Ct
[36] = system: Rattus norvegicus; assay: Neuroprotective activity against MCAO-reperfusion induced Sprague-Dawley rat assessed as reduction in infarct volume at 10 mg/kg, ip by TTC staining based analysis (reference value: 40.02 +/- 2.61 %); type: functional; set-up: scale not given: the % may be the effect or the level left
[37] = Drug concentration in Sprague-Dawley rat brain at 10 mg/kg, iv after 0.25 hrs by LC-MS/MS analysis; type: ADME, organism-based; settings: read-out: Ct
[38] = Ratio of drug concentration in Sprague-Dawley rat brain to plasma at 10 mg/kg, iv measured after 0.25 hrs by LC-MS/MS analysis; type: ADME, organism-based
[39] = system: Rattus norvegicus; assay: Neuroprotective activity against MCAO-reperfusion induced Sprague-Dawley rat assessed as reduction in neurological deficit score at 10 mg/kg, ip by TTC staining based analysis (reference value: 2.93 +/- 0.12); type: functional
[40] = AUC(0 to t) in Sprague-Dawley rat at 2 mg/kg, iv measured upto 24 hrs by LC-MS/MS analysis; type: ADME, organism-based; settings: in vivo

Nc1cc(Cl)cc(Cl)c1OCc1ccc(NS(=O)(=O)c2ccccc2)cc1
Activity [1]: 15.64%
Activity [2]: 1.96%
Activity [3]: 64.69%
Activity [4]: 38.63%

CN(CCN)C(=O)c1ccc(COc2c(N)cc(Cl)cc2Cl)cc1
Activity [1]: 11.33%
Activity [2]: 2.21%
Activity [3]: 44.82%
Activity [4]: 32.51%

Nc1cc(Cl)cc(Cl)c1OCc1ccc(C(=O)N[C@H]2CCCC[C@@H]2N)cc1
Activity [1]: 10.1%
Activity [2]: 2.42%
Activity [3]: 65.52%
Activity [4]: 39.66%

CN(C)CCNC(=O)c1ccc(COc2c(N)cc(Cl)cc2Cl)cc1
Activity [1]: 2.56%
Activity [2]: 1.52%
Activity [3]: 32.3%
Activity [4]: 15.63%

NCCCNC(=O)c1ccc(COc2c(N)cc(Cl)cc2Cl)cc1
Cmax [5]: 0.0693 µg/mL
MRT [6]: 1.46 h
half-life [7]: 2.67 h
AUC [8]: 0.31796 µg·h/mL
Activity [1]: 21.18%
AUC(0-t) at 24 h [9]: 0.296 µg·h/mL
Activity [2]: 1.77%
half-life [10]: 1.96 h
Vd [11]: 24.7 L/kg
Activity [3]: 61.33%
Activity [4]: 39.65%
AUC(0-t) at 24 h [12]: 0.309 µg·h/mL
AUC ([13]; po, 10 mg/kg, 24 h): 0.36522 µg·h/mL
F ([14]; po, 10 mg/kg, 24 h): 21.79%
Activity [15]: Active
MRT [16]: 3.26 h
Tmax [17]: 1.5 h
Cmax [18]: 0.471 µg/mL

Nc1ccccc1NC(=O)c1ccc(COc2c(N)cc(Cl)cc2Cl)cc1
Activity [1]: 14.78%
Activity [2]: 0.24%
Activity [3]: 63.3%
Activity [4]: 41.87%

COCCNC(=O)c1ccc(COc2c(N)cc(Cl)cc2Cl)cc1
Activity [1]: 11.71%
Activity [2]: 1.33%
Activity [3]: 65.14%
Activity [4]: 40.46%

NCCNC(=O)c1ccc(COc2c(N)cc(Cl)cc2Cl)cc1
Activity [1]: 12.87%
Activity [2]: < 0%
Activity [3]: 67.8%
Activity [4]: 41.14%

C[C@@H](N)CNC(=O)c1ccc(COc2c(N)cc(Cl)cc2Cl)cc1
Activity [1]: 13.55%
Activity [2]: 3.13%
Activity [3]: 63.79%
Activity [4]: 41.38%

CC1=NN(c2ccccc2)C(=O)C1 [EDARAVONE]
Activity [19]: 27.06%

Nc1cc(Cl)cc(Cl)c1OCc1ccc(C(=O)NCC(=O)O)cc1
Activity [1]: 18.96%
Activity [2]: 5.67%
Activity [3]: 66.01%
Activity [4]: 47.04%

NNC(=O)c1ccc(COc2c(N)cc(Cl)cc2Cl)cc1
Activity [1]: 5.89%
Activity [2]: 0.59%
Activity [3]: 22.56%
Activity [4]: 6.15%

Nc1cc(Cl)cc(Cl)c1OCc1ccc(C(=O)N[C@@H]2CCCC[C@H]2N)cc1
Activity [1]: 12.32%
Activity [2]: 2.51%
Activity [3]: 63.06%
Activity [4]: 41.87%

Nc1cc(Cl)cc(Cl)c1OCc1ccc(S(N)(=O)=O)cc1
Activity [1]: <0%
Activity [2]: 6.21%
Activity [3]: 33.84%
Activity [4]: 15.52%

Nc1cc(Cl)cc(Cl)c1OCc1ccc(NS(=O)(=O)C(F)(F)F)cc1
Activity [1]: 10.69%
Activity [2]: 2.21%
Activity [3]: 60.31%
Activity [4]: 36.13%

NCC(=O)Nc1cc(Cl)cc(Cl)c1OCc1ccc(C(=O)Nc2ccccc2N)cc1
Kp at 0.5 h [20]: 0.0082
Cmax [5]: 0.233 µg/mL
MRT [21]: 1.46 h
concentration at 0.25 h [22]: 1.89 µg/mL
concentration at 0.5 h [23]: 0.935 µg/mL
concentration at 1 h [24]: 10 ng/g
Kp at 1 h [25]: 0.0305
clearance [26]: 1.58 L/h/kg
AUC(0-inf) [27]: 1.28 µg·h/mL
half-life [10]: 4.26 h
Vd [28]: 8.81 L/kg
Cmax [29]: 2.51 µg/mL
concentration at 1 h [30]: 0.329 µg/mL
half-life [31]: 4.08 h
solubility [32]: 0.023 mg/mL (≈ 50.1 µM)
Activity [33]: Active
inhibition [34]: Active
concentration at 0.5 h [35]: 7.64 ng/g
AUC(0-t) at 24 h [12]: 1.24 µg·h/mL
Activity [36]: 28.31%
concentration at 0.25 h [37]: 10.6 ng/g
Kp at 0.25 h [38]: 0.0056
AUC(0-inf) ([13]; Sprague-Dawley): 1.26 µg·h/mL
Activity [39]: 2.27
bioavailability ([14]; Sprague-Dawley): 19.6%
MRT [16]: 3.26 h
Tmax [17]: 0.83 h
AUC(0-t) at 24 h [40]: 1.27 µg·h/mL

Nc1cc(Cl)cc(Cl)c1OCc1ccc(C(=O)NCCO)cc1
Activity [1]: 4%
Activity [2]: 1.21%
Activity [3]: 41.58%
Activity [4]: 26.31%

CS(=O)(=O)Nc1ccc(COc2c(N)cc(Cl)cc2Cl)cc1
Activity [1]: 15.4%
Activity [2]: 3.57%
Activity [3]: 69.19%
Activity [4]: 45.26%

Nc1cc(Cl)cc(Cl)c1OCc1ccc(C(=O)NCCS)cc1
Activity [1]: 9.67%
Activity [2]: 5.23%
Activity [3]: 61.07%
Activity [4]: 35.12%
